SMILES strings stand for the structures. Activity calls are given as the source filed them. Bounds are passed on as bounds.

A short description of assay [1]: Luminescence Cell-Based Dose Confirmation HTS to Identify Activators of 5'UTR Stem-Loop Driven Alpha-Synuclein mRNA Translation in H4 Neuroglioblastoma Cells. [Related pubchem assays: 1829 (Project Summary), 1814 (Primary HTS)]. In kind it is functional.
Assay [2] has as its target T1, RNA-binding protein pos-1 (Caenorhabditis elegans, UniProt G5EF15).
T1 sequence (G5EF15 whole entry): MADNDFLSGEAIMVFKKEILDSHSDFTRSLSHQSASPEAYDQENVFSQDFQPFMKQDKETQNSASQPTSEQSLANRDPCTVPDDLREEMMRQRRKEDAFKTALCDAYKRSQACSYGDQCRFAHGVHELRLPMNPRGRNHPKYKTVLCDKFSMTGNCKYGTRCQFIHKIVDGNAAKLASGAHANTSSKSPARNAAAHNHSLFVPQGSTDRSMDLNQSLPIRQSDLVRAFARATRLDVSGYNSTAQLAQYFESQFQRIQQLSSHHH
Put plainly: disruptors of C. elegans POS-1 RNA interaction – biochemical, fluorescence polarization, dose response (AID 1964).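 Further: purified POS-1 fused to maltose binding protein made in E. coli; potency of compounds blocking POS-1 binding to fluorescent RNA.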

A further assay relates to H4. Put plainly: Luminescence Cell-Based Dose Response HTS to Identify Activators of 5'UTR Stem-Loop Driven Prion Protein mRNA Translation in H4 Neuroglioblastoma Cells. [Related pubchem assays: 1829 (Project Summary), 1814 (Primary HTS)]. In kind it is functional. The note with it: Homo sapiens.
Assay [3] in a line: Luminescence Cell-Based Dose Response HTS to Identify Activators of Luciferase Translation or Activity in H4-C Neuroglioblastoma Cells. [Related pubchem assays: 1829 (Project Summary), 1814 (Primary HTS)]. In kind it is functional.
Assay [4] concerns Vero. Put plainly: cells. In kind it is functional. The note with it: Chlorocebus sabaeus.
Assay [5] can be described thus: Luminescence Cell-Based Dose Response HTS to Identify Activators of Luciferase Translation or Activity in H4 […] Cells. [Related pubchem assays: 1829 (Project Summary), 1814 (Primary HTS)]. In kind it is functional.
The target in assay [6] is T2, Zinc finger protein mex-5 (Caenorhabditis elegans, UniProt Q9XUB2).
T2 sequence (Q9XUB2 whole entry): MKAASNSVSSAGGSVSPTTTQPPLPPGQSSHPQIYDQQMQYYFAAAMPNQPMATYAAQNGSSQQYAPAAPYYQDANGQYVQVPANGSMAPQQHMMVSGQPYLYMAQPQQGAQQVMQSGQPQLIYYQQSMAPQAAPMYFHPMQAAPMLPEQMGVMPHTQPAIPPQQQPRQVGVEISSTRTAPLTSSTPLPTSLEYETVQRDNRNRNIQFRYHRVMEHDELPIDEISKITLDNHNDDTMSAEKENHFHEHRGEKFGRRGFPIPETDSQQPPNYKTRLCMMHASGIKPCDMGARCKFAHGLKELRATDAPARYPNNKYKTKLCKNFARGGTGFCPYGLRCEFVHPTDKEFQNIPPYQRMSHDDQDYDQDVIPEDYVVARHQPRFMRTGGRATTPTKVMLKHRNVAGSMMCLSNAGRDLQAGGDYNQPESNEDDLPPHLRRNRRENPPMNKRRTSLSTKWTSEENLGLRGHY
Put plainly: potency of MEX-5 RNA-binding blockers – biochemical, C. elegans, fluorescence polarization, dose response (AID 1960).

The nature of assay [7]: Luminescence Cell-Based Dose Retest to Confirm Activators of 5'UTR Stem-Loop Driven Alpha-Synuclein mRNA Translation in H4 Neuroglioblastoma Cells. [Related pubchem assays (depositor defined):AID1813, AID1829]. It is filed as functional.
Assay [8] can be described thus: Luminescence Cell-Based Dose Response HTS to Identify Activators of 5'UTR Stem-Loop Driven Prion Protein mRNA Translation in H4-C Neuroglioblastoma Cells. [Related pubchem assays: 1829 (Project Summary), 1814 (Primary HTS)]. It is filed as functional.
The subject of assay [9] is Vero. Put plainly: inhibition of WNV-induced cytopathic effect – cell-based, CPE readout (AID 1621). In kind it is functional. Conditions: Chlorocebus sabaeus.
The nature of assay [10]: A Cell Based Assay for the Identification of Probe candidate Compounds with Anti- Venezuelan Equine Encephalitis virus. [Related pubchem assays: 2409, 2419, 1621, 2238, 2405, 2024, 2065, 2402, 2414, 1635, 1650, 2244 ]. It is filed as functional.
The test system of assay [11] is Vero. Put plainly: Vero cell viability after compound exposure – synthesized analogs, set II, cytotoxicity control for West Nile virus antiviral project, SAR follow-up (AID 2402). In kind it is functional. Conditions: Chlorocebus sabaeus.
Assay [12] concerns Vero. Put plainly: host cell viability loss, Vero E6 – synthesized analogs, cytotoxicity control for West Nile virus antiviral project, SAR follow-up (AID 2244). In kind it is functional. Conditions: Chlorocebus sabaeus.
The test system of assay [13] is Vero. Put plainly: Vero 76 cell viability after compound exposure – Vero 76 cells, synthesized analogs, cytotoxicity control for West Nile virus antiviral project, SAR follow-up (AID 2414). It is filed as functional. Conditions: Chlorocebus sabaeus.
The subject of assay [14] is Vero. Put plainly: antiviral protection of cells from WNV – synthesized analogs, SAR follow-up (AID 2238). Conditions: Chlorocebus sabaeus. It is filed as functional, cell-based.
The nature of assay [15]: viability of HCT116 lacking mutant beta-catenin – cell-based, human colon tumor, dose response (AID 1045).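 Further: HCT116 colon tumor cells with beta catenin knocked out; cells exposed to compound for 60 hours.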 It is filed as functional.
Assay [16] deals with G-protein coupled receptor 55 (Homo sapiens, UniProt Q9Y2T6). Put plainly: selective activators of receptor GPR55 – imaging, U2OS cells, beta-arrestin-GFP redistribution, primary screen (AID 1961). In kind it is functional.
Assay [17] concerns the target Arf-GAP with SH3 domain, ANK repeat and PH domain-containing protein 1 (Homo sapiens, UniProt Q9ULH1). In kind it is functional.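 Further: biochemical fluorescence polarization dose–response screen measuring inhibition of ASAP1; ASAP1 GAP domain stimulating GTP hydrolysis by truncated human ARF1.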
The nature of assay [18]: viability of PTEN-deleted HCT116 cells – cell-based, HCT116 PTEN knockout, dose response (AID 1047).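 Further: HCT116 colon tumor cells with PTEN knocked out; cells exposed to compound for 60 hours before readout; potency for loss of cell viability measured by luminescence.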 It is filed as functional.
In assay [19] the target is T3, Endoribonuclease toxin MazF (Escherichia coli K-12, UniProt P0AE70).
T3 sequence (P0AE70 whole entry): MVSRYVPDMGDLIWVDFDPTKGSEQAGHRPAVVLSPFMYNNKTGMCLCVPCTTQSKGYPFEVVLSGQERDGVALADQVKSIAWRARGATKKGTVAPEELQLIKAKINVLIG
Put plainly: substrate-only fluorescence increase artefacts – biochemical, single-stranded RNase substrate, counter-screen for MazEF activator project, dose response (AID 588502). It is filed as functional. A general note: The purpose of a counterscreen is to sort out artefacts and off-target activity.

Assay [20] concerns the target T4, Ubiquitin-conjugating enzyme E2 N (Homo sapiens, UniProt P61088).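 Further: Dose-response confirmation in a TR-FRET assay detecting UBC13-driven polyubiquitin chain formation, inhibition measured.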
T4 sequence (P61088 whole entry): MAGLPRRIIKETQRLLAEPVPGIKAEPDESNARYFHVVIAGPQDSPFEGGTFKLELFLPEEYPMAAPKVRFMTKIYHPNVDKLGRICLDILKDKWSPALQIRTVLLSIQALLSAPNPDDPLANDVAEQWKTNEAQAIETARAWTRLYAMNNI
In kind it is functional.

Assay [21] concerns the target T3, Endoribonuclease toxin MazF. Put plainly: activation of MazEF endoribonuclease cleavage – biochemical, fluorescence, single-stranded RNA substrate, uHTS hits, dose response (AID 588481). It is filed as functional.
Assay [22] deals with Neurotensin receptor type 1 (Homo sapiens, UniProt P30989). It is filed as functional.
The target of assay [23] is Intestinal-type alkaline phosphatase (Homo sapiens, UniProt P09923). Put plainly: Dose Response confirmation of uHTS hits from a small molecule inhibitors of human intestinal alkaline phosphatase via a luminescent assay. [Related pubchem assays (depositor defined):AID2544, AID2574]. In kind it is functional.
The target in another assay is Hexokinase (Trypanosoma brucei, UniProt Q38C41). Put plainly: Confirmation assay for inhibitors of Trypanosoma brucei hexokinase 1-Analogue-first series. [Related pubchem assays (depositor defined):AID1430, AID1632, AID2516, AID2560, AID2579, AID2600, AID449725, AID492951]. In kind it is functional.
In assay [24] the target is T5, Kappa-type opioid receptor (Homo sapiens, UniProt P41145). Put plainly: SAR analysis of Antagonists of the Kappa Opioid Receptor (KOR) using an Image-Based Assay - Set 3. [Related pubchem assays (depositor defined):AID1777, AID1785]. It is filed as functional.
Assay [25] concerns the target T5, Kappa-type opioid receptor. Put plainly: SAR analysis of small molecule antagonists of the kappa opioid receptor via a luminescent beta-arrestin assay - Set 3. [Related pubchem assays (depositor defined):AID1777, AID1778, AID1785, AID1786, AID1966, AID2133, AID2136, AID2285, AID2495]. It is filed as functional.
Assay [26] addresses Delta-type opioid receptor (Homo sapiens, UniProt P41143). Put plainly: SAR Analysis of Antagonists of the DOR Receptor using an Image-Based Assay - Set 3. [Related pubchem assays (depositor defined):AID1777, AID1785]. In kind it is functional.
The target of another assay is Mu-type opioid receptor (Homo sapiens, UniProt P35372). Put plainly: SAR Analysis of Antagonists of the MOR Receptor using an Image-Based Assay - Set 3. [Related pubchem assays (depositor defined):AID1777, AID1785, AID1786, AID1966, AID2133, AID2136, AID2284, AID2285, AID2420]. In kind it is functional.
Mu-type opioid receptor, sequence (P35372 whole entry): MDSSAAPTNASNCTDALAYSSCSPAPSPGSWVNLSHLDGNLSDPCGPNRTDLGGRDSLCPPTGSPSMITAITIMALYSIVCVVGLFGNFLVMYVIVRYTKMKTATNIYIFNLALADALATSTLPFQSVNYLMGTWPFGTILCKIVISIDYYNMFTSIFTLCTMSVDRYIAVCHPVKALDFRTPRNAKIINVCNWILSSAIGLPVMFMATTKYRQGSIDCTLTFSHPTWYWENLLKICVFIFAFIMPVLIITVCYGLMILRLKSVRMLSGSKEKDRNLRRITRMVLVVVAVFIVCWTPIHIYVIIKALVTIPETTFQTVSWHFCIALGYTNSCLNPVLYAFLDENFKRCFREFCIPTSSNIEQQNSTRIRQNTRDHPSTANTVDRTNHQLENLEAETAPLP

T5 sequence (P41145 whole entry): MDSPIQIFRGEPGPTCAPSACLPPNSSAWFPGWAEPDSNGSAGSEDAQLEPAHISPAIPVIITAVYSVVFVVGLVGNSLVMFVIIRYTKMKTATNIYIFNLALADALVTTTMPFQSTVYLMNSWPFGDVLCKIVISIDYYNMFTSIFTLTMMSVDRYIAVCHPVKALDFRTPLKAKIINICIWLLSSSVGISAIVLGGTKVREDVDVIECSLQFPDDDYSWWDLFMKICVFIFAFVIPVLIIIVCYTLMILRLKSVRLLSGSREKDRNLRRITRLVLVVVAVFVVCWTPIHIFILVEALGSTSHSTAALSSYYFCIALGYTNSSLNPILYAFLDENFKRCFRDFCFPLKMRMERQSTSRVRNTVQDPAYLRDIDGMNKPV
Arf-GAP with SH3 domain, ANK repeat and PH domain-containing protein 1, sequence (Q9ULH1 whole entry, the tested form may be a part): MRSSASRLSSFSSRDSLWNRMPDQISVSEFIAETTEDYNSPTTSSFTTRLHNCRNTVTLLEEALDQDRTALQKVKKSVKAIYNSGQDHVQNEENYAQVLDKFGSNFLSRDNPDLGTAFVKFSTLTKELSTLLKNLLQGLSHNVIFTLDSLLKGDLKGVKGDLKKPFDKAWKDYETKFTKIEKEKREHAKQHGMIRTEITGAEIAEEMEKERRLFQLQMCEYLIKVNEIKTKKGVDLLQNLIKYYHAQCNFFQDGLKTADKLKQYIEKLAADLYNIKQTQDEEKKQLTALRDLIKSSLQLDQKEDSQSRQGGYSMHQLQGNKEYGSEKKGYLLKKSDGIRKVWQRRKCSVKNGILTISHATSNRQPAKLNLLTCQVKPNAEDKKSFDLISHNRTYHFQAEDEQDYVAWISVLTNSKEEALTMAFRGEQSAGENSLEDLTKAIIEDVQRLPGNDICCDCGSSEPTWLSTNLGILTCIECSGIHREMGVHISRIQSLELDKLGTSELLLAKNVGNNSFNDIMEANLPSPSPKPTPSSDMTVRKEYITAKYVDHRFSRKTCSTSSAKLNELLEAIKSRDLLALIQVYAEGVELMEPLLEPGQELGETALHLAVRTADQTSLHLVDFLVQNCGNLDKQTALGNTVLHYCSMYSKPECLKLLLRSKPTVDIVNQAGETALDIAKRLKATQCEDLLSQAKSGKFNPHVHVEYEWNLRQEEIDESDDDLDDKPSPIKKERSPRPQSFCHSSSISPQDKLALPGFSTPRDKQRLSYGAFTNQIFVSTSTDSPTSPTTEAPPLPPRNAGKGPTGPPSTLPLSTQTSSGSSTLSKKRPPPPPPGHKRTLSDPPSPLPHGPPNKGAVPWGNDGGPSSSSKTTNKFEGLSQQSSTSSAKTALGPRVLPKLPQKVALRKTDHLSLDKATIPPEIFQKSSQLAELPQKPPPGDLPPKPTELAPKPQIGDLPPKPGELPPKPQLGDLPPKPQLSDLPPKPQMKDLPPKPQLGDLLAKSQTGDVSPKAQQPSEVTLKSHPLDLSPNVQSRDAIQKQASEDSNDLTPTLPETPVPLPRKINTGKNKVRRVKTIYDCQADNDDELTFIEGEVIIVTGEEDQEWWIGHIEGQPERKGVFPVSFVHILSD
Delta-type opioid receptor, sequence (P41143 whole entry): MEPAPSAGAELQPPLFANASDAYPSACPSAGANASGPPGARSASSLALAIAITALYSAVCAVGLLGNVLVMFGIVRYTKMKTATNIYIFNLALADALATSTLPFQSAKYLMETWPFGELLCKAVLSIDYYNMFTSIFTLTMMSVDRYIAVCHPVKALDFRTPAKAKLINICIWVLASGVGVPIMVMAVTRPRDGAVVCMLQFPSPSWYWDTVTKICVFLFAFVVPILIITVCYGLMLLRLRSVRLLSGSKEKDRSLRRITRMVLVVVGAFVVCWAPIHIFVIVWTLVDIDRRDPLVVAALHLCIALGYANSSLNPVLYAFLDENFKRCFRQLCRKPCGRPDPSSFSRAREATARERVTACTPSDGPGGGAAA
Hexokinase, sequence (Q38C41 whole entry): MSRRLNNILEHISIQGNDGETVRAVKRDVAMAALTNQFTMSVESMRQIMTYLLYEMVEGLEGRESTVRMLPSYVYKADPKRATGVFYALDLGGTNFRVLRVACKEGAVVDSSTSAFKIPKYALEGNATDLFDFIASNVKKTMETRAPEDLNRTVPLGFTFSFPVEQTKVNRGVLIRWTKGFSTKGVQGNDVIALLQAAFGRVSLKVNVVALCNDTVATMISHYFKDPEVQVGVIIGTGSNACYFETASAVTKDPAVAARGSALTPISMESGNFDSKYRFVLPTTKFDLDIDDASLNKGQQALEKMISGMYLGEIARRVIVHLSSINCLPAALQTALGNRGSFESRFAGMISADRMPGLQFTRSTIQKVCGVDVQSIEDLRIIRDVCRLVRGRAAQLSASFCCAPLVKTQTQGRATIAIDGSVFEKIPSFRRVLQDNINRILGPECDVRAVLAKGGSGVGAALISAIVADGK
Intestinal-type alkaline phosphatase, sequence (P09923 whole entry): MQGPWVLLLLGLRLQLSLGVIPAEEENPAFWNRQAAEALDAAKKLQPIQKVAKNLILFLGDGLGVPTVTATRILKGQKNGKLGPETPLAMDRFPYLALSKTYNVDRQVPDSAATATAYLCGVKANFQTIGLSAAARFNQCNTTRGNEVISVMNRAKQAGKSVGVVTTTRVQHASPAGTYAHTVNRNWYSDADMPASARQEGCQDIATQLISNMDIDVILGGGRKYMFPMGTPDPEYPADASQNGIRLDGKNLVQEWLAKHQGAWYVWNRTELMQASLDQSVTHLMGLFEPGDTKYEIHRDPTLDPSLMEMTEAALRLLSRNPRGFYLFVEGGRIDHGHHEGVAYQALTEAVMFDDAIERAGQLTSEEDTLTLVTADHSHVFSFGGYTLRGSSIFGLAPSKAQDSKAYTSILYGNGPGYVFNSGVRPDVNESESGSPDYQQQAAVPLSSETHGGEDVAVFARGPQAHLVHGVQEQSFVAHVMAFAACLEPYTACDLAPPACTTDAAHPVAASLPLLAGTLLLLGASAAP
Neurotensin receptor type 1, sequence (P30989 whole entry): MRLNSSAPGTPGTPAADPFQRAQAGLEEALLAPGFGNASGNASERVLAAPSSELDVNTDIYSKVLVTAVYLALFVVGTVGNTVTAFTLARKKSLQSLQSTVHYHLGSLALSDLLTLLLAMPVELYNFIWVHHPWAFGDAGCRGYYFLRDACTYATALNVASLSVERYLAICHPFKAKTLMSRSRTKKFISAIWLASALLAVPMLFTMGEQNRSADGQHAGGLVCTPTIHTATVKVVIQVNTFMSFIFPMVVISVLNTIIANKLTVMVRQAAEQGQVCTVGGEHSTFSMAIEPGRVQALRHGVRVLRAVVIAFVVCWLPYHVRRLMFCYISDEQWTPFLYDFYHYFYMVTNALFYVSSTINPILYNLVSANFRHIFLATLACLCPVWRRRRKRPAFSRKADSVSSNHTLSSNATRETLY
G-protein coupled receptor 55, sequence (Q9Y2T6 whole entry, the tested form may be a part): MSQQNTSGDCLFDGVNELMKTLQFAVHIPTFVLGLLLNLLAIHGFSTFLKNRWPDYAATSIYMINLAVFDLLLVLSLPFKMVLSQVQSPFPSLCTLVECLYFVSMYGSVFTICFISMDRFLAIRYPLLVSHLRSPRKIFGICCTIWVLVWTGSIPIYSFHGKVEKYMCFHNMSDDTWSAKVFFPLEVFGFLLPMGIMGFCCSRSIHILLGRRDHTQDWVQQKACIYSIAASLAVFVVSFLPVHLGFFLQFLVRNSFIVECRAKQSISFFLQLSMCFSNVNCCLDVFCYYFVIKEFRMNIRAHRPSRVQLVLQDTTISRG

Usually EC50 stands for the concentration that produces a half-maximal response. A word on the CC50: it is the concentration that lowers cell viability or growth by half. For the compound `COc1cc(/C=C2/C(=O)ON=C2C)ccc1OCc1ccccc1F`, the EC50 in [1] was 0.127 µM (active); in assay [2] it was 60.2 µM (active); with H4, > 120 µM (not active); in assay [3], 2.06 µM (active); in [5] it was 39.6 µM (active); in assay [6], > 300 µM (inconclusive). For the same compound, the EC50 in assay [7] was 0.901 µM (active); in assay [8], 10.3 µM (active). Also, in the assay on Vero [4], the CC50 is 22.3 µM (active).
For orientation: IC50 means the point on the concentration scale where inhibition reaches its midpoint. For the compound `CC1CCCN(CCCNC(=O)c2cc3c(s2)-c2ccccc2OC3)C1` (stereo not given), the IC50 is 18.9 µM (active) with Vero [9], 9.94 µM (active) in assay [10] and > 40 µM (active) in the assay on Vero [14]. For the same compound, the CC50 was 9.23 µM (active) in the assay with Vero [11], > 25 µM (active) in the assay on Vero [4], 6.78 µM (active) with Vero [12] and 19.6 µM (active) in the assay with Vero [13].
On to `COc1cc2c3nnc(-c4ccc(F)cc4)c-3cn(Cc3ccccc3)c2cc1OC`, for which the concentration giving a half-maximal response (EC50) in assay [15] is 5.84 µM (active); in assay [16], 0.921 µM (active); in [18], 5.91 µM (active); in [19], > 99 µM (inactive); in assay [21], > 99 µM (inactive); in [22], 2.91 µM (active). The IC50 is 19.2 µM (inactive) in assay [17] and > 20 µM (inactive) in assay [20].
Consider `Cc1cccc(SCc2noc(C(=O)NCC3CCCO3)c2C(=O)O)c1` (stereo not given), for which, in assay [23], the IC50 is > 100 µM (inactive).
For the compound `O=C(Nc1ccccc1)c1cc(F)ccc1S`, the IC50 at Hexokinase is > 25 µM (inactive).
Regarding `CCc1ccc(S(=O)(=O)NCc2ccc(C(=O)NCCN(Cc3ccc(OC)cc3)C(C)C)cc2)cc1`, the IC50 was 0.264 µM (active) in [24], 0.873 µM (active) in [25], > 32 µM (inactive) in assay [26] and > 32 µM (inactive) on Mu-type opioid receptor.

Values taken from ChEMBL document CHEMBL1201862, “PubChem BioAssay data set” (2004).
